Assay results as given in US4314055A, “3,5-Disubstituted-2,4,6-triiodoanilides of polyhydroxy-monobasic acids” (Mallinckrodt, Inc., priority 1977, dated 1982).
Values after ≈ are worked out from the molar mass of the structure shown. Read-outs that look alike come from different tables or passages of the source.

Key:
water solubility = type: physicochemical
Experimental: A 15% w/v solution was prepared, seeded and stirred at room temperature.

Swiss Albino mice [1] = test: Acute Intravenous Toxicity Studies in Mice; type: in vivo, mouse (Swiss Albino, Charles River)
Experimental: (§1) Toxicity evaluations in accordance with three different techniques were carried out on aqueous solutions of the compounds of Examples I, II, IV, V, VI, VIII, IX, X, XI and XII. The techniques utilized are described below.
1. Acute Intravenous Toxicity Studies in Mice
Except as noted below, Swiss Albino mice (Charles River) were dosed in the lateral tail vein with solutions of the above-noted iodinated compounds having an iodine concentration of 28.2% with a pH of 7.0-7.2. The solutions were injected at the rate of approximately 1 ml./min. In the case of the compound of Examples I, II and VI, supersaturated solutions having an iodine concentration of 10%, 28% and 28%, respectively, were employed. […] The LD50 values were calculated by the method of Litchfield and Wilcoxon (J. of Pharmac. and Exptl. Therap. 96:99-113, 1949).

Swiss Albino mice [2] = test: Intracerebral Toxicity in Mice; type: in vivo, mouse (Swiss Albino, Charles River)
Experimental: as §1
2. Intracerebral Toxicity in Mice
Swiss Albino mice (Charles River) were used. Fixed volumes of aqueous solutions of the iodinated compounds were injected intracerebrally via a 27-gauge needle (1/4 inch in length) according to the method of Haley et al. (Br. J. of Pharmac. 12:12-15, 1957). Again in the case of the compounds of Examples I, II and VI, supersaturated solutions were employed. In the case of the compound of Examples VIII and IX, solutions having an iodine concentration of 35% and 42%, respectively, were employed and in the case of the compound of Example X, a solution having an iodine concentration of 40% was employed. The animals were observed immediately following injections and daily throughout a seven day observation period. The LD50 values were calculated by the method of Litchfield and Wilcoxon (J. of Pharmac. and Exptl. Therap. 96:99-113, 1949).

[3] = system: Sprague-Dawley (Carworth) rats; test: Intracisternal Toxicity in Rats; type: in vivo, rat (Sprague-Dawley; details: two day observation
Experimental: as §1
3. Intracisternal Toxicity in Rats
Sprague-Dawley (Carworth) rats were used. The method used was a variation of the procedure outlined by Melartin et al. (Invest. Rad. 5:13-21, 1970). In the case of the compound of Examples VIII and IX, solutions having an iodine concentration of 35% and 40%, respectively, were employed and in the case of the compound of Example X, a solution having an iodine concentration of 40% was employed. After dosing, the animals were housed individually and observed for immediate reactions and periodically for a two day observation period. The LD50 values were calculated according to the method of Litchfield and Wilcoxon (J. of Pharmac. and Exptl. Therap. 96:99-115, 1949).

dog [4] = test: tested as a bronchographic agent in a dog; type: in vivo
Experimental: (§2) The compound of Example I was tested as a bronchographic agent in a dog with good results. The compound of Example II was employed in intravenous pyelographic studies carried out in dogs. At a dosage of 250 mg. […] At a dosage of 350 mg. […] At a dosage of 350 mg. […] At a dosage of 190 mg. […] The compound of Examples VIII and IX was employed in intrathecal myelographic studies carried out in dogs. At dosages of 282 to 2400 mg. […] The compound of Examples VIII and IX was employed in intracisternal toxicity studies carried out in dogs using the cisterna magna as the route of administration. At a dosage of 1410 mg. […] The compound of Example X was employed in intravenous pyelographic studies carried out in rats. At a dosage of 500 mg. […] At a dosage of 70 mg. […] In a separate study, the compound of Examples XI and XII was administered to dogs by intraspinal administration at a dosage of 70 mg. I/kg.

dogs [5] = test: intravenous pyelographic studies in dogs; type: in vivo, dog; details: 250 mg. I/kg.
Experimental: as §2

dog [6] = test: urinary tract visualization after injection into a dog; type: in vivo
Experimental: as §2

rats = test: intravenous pyelographic studies in rats; type: in vivo, rat; details: 500 mg. I/kg.
Experimental: as §2

dogs [7] = test: intrathecal myelographic studies in dogs; type: in vivo, dog
Experimental: as §2

dogs [8] = test: intracisternal toxicity studies in dogs (cisterna magna route); type: in vivo, dog; details: 1410 mg. I/kg.
Experimental: as §2

dogs [9] = test: radiographs after intraspinal administration to dogs; type: in vivo, dog; details: 70 mg. I/kg.
Experimental: as §2

[10] = water, read-out: water solubility
[11] = supersaturated solution, seven day observation
[12] = supersaturated solution, iodine concentration 28%
[13] = iodine concentration 28.2%, pH 7.0-7.2, approx. 1 ml./min., seven-day observation
[14] = fixed volumes of aqueous solutions, seven day observation
[15] = water, initially, read-out: solubility, initial

CNC(=O)c1c(I)c(NC(=O)[C@H](O)[C@@H](O)[C@H](O)[C@H](O)CO)c(I)c(C(=O)NC)c1I [Example I, 5-D-Gluconamido-2,4,6-triiodo-N,N'-dimethylisophthalamide]
solubility (water solubility; [10]): 12 mg/mL (≈ 15.7 mM) | LD50 Value I.V. (Mice) (Swiss Albino mice [1]; supersaturated solution, iodine concentration 10%): > 10,000 mg. I/kg. body wt. | LD50 Value Intracerebral (Mice) (Swiss Albino mice [2]; [11]): > 750 mg. I/kg. body wt. | LD50 Value Intracisternal (Rats) [3]: > 150 mg. I/kg. body wt. | bronchographic agent test result (dog [4]): good results

CNC(=O)c1c(I)c(NC(=O)[C@H](O)[C@@H](O)[C@H](O)[C@H](O)CO)c(I)c(C(=O)N(C)C)c1I [Example II, 5-D-Gluconamido-2,4,6-triiodo-N,N,N'-trimethylisophthalamide]
solubility (water solubility; [10]): 284 mg/mL (≈ 365 mM) | LD50 Value I.V. (Mice) (Swiss Albino mice [1]; [12]): 8,085 mg. I/kg. body wt. | LD50 Value Intracerebral (Mice) (Swiss Albino mice [2]; [11]): 2,350 mg. I/kg. body wt. | LD50 Value Intracisternal (Rats) [3]: 100 mg. I/kg. body wt. | ureters and urinary bladder visualization (dogs [5]; five minutes after injection): the ureters and urinary bladder were visible | kidney visualization (dogs [5]; one minute after injection): kidney shadows were observed

CNC(=O)c1c(I)c(NC(=O)[C@H](O)[C@@H](O)[C@H](O)[C@H](O)CO)c(I)c(N(C)C(C)=O)c1I [Example IV, 3-D-Gluconamido-2,4,6-triiodo-N-methyl-5-(N-methylacetamido)-benzamide]
solubility (water solubility; [10]): ≥ 1000 mg/mL | LD50 Value I.V. (Mice) (Swiss Albino mice [1]; [13]): 6,400 mg. I/kg. body wt. | LD50 Value Intracerebral (Mice) (Swiss Albino mice [2]; [14]): 1,175 mg. I/kg. body wt. | LD50 Value Intracisternal (Rats) [3]: 75 mg. I/kg. body wt. | urinary bladder visualization (dog [6]; 350 mg. I/kd. (so in the source), 40 minutes after injection): gave a shadow of the urinary bladder

CNC(=O)c1c(I)c(C(=O)N(C)C)c(I)c(N(C)C(=O)[C@@H](O)[C@H](O)[C@H](O)[C@@H](O)C=O)c1I [Example V, 2,4,6-triiodo-N,N,N'-trimethyl-5-(N-methyl-D-galacturonamido)-isophthalamide]
solubility (water solubility; [10]): ≥ 1000 mg/mL | LD50 Value I.V. (Mice) (Swiss Albino mice [1]; [13]): 1,700 mg. I/kg. body wt. | LD50 Value Intracerebral (Mice) (Swiss Albino mice [2]; [14]): 1,700 mg. I/kg. body wt. | LD50 Value Intracisternal (Rats) [3]: 28 mg. I/kg. body wt. | kidney and ureter visualization (dog [6]; 350 mg. I/kg., 5 minutes after injection): gave a kidney shadow with partial visualization of the ureters

CNC(=O)c1c(I)c(NC(C)=O)c(I)c(NC(=O)[C@H](O)[C@@H](O)[C@H](O)[C@H](O)CO)c1I [Example VI, 3-acetamido-5-D-gluconamido-2,4,6-triiodo-N-methylbenzamide]
solubility (water solubility; [10]): 86 mg/mL (≈ 113 mM) | LD50 Value I.V. (Mice) (Swiss Albino mice [1]; [12]): 11,000 mg. I/kg. body wt. | LD50 Value Intracerebral (Mice) (Swiss Albino mice [2]; [11]): ~ 2,000 mg. I/kg. body wt. | LD50 Value Intracisternal (Rats) [3]: 180 mg. I/kg. body wt. | kidney and ureter visualization (dog [6]; 190 mg. I/kg., one minute after injection): gave a kidney shadow with partial visualization of the ureters

CNC(=O)c1c(I)c(CO)c(I)c(NC(=O)[C@H](O)[C@@H](O)[C@H](O)[C@H](O)CO)c1I [Example VII, 3-D-gluconamido-5-hydroxymethyl-2,4,6-triiodo-N-methylbenzamide]
solubility (water solubility; [10]): 18.6 mg/mL (≈ 25.3 mM)

CNC(=O)c1c(I)c(NC(=O)C(=O)[C@@H](O)[C@H](O)[C@@H](O)CO)c(I)c(N(CCO)C(C)=O)c1I [Example X, 3-[N-(2-hydroxyethyl)acetamido]-2,4,6-triiodo-5-(2-keto-L-gulonamido)-N-methylbenzamide]
solubility on standing (water solubility; after standing several days, analytical sample): a precipitate formed after standing several days | solubility, initial (water solubility; initially): 100 % (w/v) | solubility at 504 h (water solubility; water, after 21 days): 640 mg/mL (≈ 795 mM) | solubility (water solubility; [15]): 1000 mg/mL (≈ 1240 mM) | LD50 Value I.V. (Mice) (Swiss Albino mice [1]; [13]): ~ 10,500 mg. I/kg. body wt. | LD50 Value Intracerebral (Mice) (Swiss Albino mice [2]; Iodine Conc. 40%): 2,500 mg. I/kg. body wt. | LD50 Value Intracisternal (Rats) ([3]; Iodine Conc. 40%): 405 mg. I/kg. body wt. | urinary bladder contrast (rats; 10 and 15 minutes after dosing): showed good contrast | collecting pelvis of the right kidney filling (rats; 10 minutes): showed good filling | kidney and ureter visualization (rats; five minutes after injection): faint kidney and portions of ureters were observed

CNC(=O)c1c(I)c(NC(=O)[C@H](O)[C@@H](O)[C@H](O)[C@H](O)CO)c(I)c(N(CCO)C(C)=O)c1I [Examples VIII and IX, 3-gluconamido-5-[N-(2-hydroxyethyl)acetamido]-2,4,6-triiodo-N-methylbenzamide]
solubility (water solubility; water, printed as slightly less than, read-out: aqueous solubility): < 1000 mg/mL | LD50 Value I.V. (Mice) (Swiss Albino mice [1]; Iodine Conc. 40%): 14,500 mg. I/kg. body wt. | LD50 Value I.V. (Mice) (Swiss Albino mice [1]; [13]): > 13,000 mg. I/kg. body wt. | LD50 Value Intracerebral (Mice) (Swiss Albino mice [2]; Iodine Conc. 35%): > 2,679 mg. I/kg. body wt. | LD50 Value Intracerebral (Mice) (Swiss Albino mice [2]; Iodine Conc. 42%): 2,200 mg. I/kg. body wt. | LD50 Value Intracisternal (Rats) ([3]; Iodine Conc. 35%): > 505 mg. I/kg. body wt. | LD50 Value Intracisternal (Rats) ([3]; Iodine Conc. 40%): 590 mg. I/kg. body wt. | filling of subarachnoid space (dogs [7]; intrathecal, 282 to 2400 mg. I/kg., extent depending on volume injected and size of animal): good filling of the subarachnoid space from the cul-de-sac to the thoracic, cervical and cisterna magna | subarachnoid space filling (dogs [8]): partial filling of the cerebral subarachnoid space and good cervical and thoracic subarachnoid space filling

CNC(=O)c1c(I)c(NC(=O)[C@H](O)[C@@H](O)[C@H](O)[C@H](O)CO)c(I)c(NC(=O)[C@H](O)[C@@H](O)[C@H](O)[C@H](O)CO)c1I [Examples XI and XII, 3,5-bis-D-gluconamido-2,4,6-triiodo-N-methylbenzamide]
turbidity of solution (water solubility; 15% w/v solution, seeded and stirred at room temperature): turbidity developed within two hours | solubility thermodynamic (water solubility; water, 15% w/v solution seeded, stirred at room temperature, filtered, filtrate aliquot evaporated to constant weight at 85° C.): 120 mg/mL (≈ 133 mM) | solubility at 24 h (water solubility; water, after 24 hr., read-out: aqueous solubility after 24 hr.): < 150 mg/mL | solubility (water solubility; [15]): 1000 mg/mL (≈ 1110 mM) | LD50 Value I.V. (Mice) (Swiss Albino mice [1]; [13]): 20,500 mg. I/kg. body wt. | LD50 Value Intracerebral (Mice) (Swiss Albino mice [2]; [14]): 1,330 mg. I/kg. body wt. | LD50 Value Intracisternal (Rats) [3]: > 560 mg. I/kg. body wt. | radiographs, filling (dogs [7]; intrathecal injection, 70 mg. I/kg.): fair filling with some degree of scalloping | radiographs, definition of lumbar and sacral spinal spaces (dogs [9]): the lumbar and sacral spinal spaces were well defined

CNC(=O)c1c(I)c(NC(=O)C(=O)[C@@H](O)[C@H](O)[C@@H](O)CO)c(I)c(C(=O)N(C)C)c1I [III, 2,4,6-Triiodo-5-(2-keto-L-gulonamido)-N,N,N'-trimethylisophthalamide]
solubility (water solubility; [10]): 37.5 mg/mL (≈ 48.4 mM)
